The target in this test is T1, WT BetP (AMP-BetP) (Corynebacterium glutamicum, UniProt P54582).
T1 sequence (P54582 1-595): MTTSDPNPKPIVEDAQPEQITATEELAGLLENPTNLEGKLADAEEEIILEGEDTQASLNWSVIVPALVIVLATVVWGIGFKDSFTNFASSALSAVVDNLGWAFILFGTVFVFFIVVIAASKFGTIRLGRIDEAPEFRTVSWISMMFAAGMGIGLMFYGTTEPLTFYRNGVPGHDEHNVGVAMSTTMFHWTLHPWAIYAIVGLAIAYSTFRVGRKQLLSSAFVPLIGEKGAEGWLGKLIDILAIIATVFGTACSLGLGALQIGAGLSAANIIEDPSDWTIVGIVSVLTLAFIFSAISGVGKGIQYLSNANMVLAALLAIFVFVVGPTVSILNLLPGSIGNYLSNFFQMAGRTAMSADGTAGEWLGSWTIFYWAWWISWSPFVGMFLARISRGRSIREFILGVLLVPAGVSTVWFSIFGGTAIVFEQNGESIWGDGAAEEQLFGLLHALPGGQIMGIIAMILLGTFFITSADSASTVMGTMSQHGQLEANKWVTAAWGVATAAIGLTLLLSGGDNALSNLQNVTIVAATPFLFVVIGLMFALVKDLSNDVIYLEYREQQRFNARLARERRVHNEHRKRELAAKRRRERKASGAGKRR
Description: biochemical.

The values that follow come from doi:10.1101/2022.06.02.493408v1 (biorxiv, 2022).

A word on the Kd: it is the concentration at which binding is half-saturated.

With `C[N+](C)(C)CC(=O)[O-]` [betaine], the equilibrium dissociation constant (Kd) was found to be 188 ± 34 µM.
